# Measurements reported in patent publication US10047051B2, “Substituted pyridines and method of use” (AbbVie S.á{acute over (.)}r.l., priority 2015, dated 2018).
# Legend:
# CFTR ΔF508 mutant = biological target: T1, CFTR ΔF508 mutant (Homo sapiens, UniProt P13569, DEL508-508); test: YFP-halide influx assay for the CFTR-ΔF508 mutation (CFBE41o- cells); assay type: cell-based; conditions: forskolin 10.67 μM; for EC50: from (1−F/F0) vs concentration plot
# T1 construct: expressed in transfected cells; host or cells: CFBE41o- cells, adenoviral transduction
# T1 sequence (P13569 with tags, fused parts or gaps DEL508-508): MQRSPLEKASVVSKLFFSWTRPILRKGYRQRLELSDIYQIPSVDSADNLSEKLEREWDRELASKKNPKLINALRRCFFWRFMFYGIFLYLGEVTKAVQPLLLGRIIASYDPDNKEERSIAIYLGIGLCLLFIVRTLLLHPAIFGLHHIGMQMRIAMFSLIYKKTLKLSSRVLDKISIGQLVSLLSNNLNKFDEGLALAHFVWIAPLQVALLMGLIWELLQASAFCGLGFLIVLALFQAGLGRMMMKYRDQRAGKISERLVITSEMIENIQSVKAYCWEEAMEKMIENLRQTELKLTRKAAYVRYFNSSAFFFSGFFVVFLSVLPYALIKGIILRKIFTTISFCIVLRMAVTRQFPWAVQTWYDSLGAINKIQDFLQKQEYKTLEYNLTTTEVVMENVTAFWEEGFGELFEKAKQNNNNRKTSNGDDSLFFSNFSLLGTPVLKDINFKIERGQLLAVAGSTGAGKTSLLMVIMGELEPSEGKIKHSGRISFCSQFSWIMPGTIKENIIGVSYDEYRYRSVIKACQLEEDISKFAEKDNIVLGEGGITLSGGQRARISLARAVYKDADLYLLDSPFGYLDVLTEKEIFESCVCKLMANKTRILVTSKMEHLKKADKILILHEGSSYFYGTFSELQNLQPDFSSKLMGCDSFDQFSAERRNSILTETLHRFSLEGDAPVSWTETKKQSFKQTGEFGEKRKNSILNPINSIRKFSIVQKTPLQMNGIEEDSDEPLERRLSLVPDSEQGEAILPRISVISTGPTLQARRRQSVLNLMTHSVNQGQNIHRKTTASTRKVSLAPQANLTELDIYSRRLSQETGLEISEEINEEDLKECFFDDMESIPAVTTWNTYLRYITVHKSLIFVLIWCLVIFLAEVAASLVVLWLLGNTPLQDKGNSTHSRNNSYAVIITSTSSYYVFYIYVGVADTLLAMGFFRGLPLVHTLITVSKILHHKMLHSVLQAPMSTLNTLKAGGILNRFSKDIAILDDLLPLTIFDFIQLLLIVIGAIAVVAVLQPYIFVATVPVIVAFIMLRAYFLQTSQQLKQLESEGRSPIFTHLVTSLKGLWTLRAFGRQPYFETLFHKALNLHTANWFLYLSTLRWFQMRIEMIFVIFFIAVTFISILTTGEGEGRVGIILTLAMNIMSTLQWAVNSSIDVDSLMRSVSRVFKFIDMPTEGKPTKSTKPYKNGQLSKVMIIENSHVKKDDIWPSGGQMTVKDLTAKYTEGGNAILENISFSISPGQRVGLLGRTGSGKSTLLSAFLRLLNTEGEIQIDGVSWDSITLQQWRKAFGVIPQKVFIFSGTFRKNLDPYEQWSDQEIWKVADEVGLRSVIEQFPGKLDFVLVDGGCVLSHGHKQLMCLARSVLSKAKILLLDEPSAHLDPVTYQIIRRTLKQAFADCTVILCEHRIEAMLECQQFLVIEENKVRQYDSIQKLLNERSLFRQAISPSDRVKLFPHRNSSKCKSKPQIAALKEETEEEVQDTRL
# Method in brief: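 EC50 derived from plotting 1−F/F0 (fluorescence 36 s after iodide injection over pre-injection value) against compound concentration. Cells: CFBE41o- transduced with ΔF508-CFTR and YFP quench reporter, corrected 24 h at 27° C or by a CFTR modulator at 37° C.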
# CFTR G551D mutant = biological target: T2, CFTR G551D mutant (Homo sapiens, UniProt P13569, G551D); test: YFP-halide influx assay for the CFTR-G551D mutation (HEK293 cells); assay type: cell-based; conditions: forskolin 10.67 μM
# T2 construct: expressed in transfected cells; host or cells: HEK293 cells, reverse transfection with plasmids
# T2 sequence (P13569 whole entry G551D): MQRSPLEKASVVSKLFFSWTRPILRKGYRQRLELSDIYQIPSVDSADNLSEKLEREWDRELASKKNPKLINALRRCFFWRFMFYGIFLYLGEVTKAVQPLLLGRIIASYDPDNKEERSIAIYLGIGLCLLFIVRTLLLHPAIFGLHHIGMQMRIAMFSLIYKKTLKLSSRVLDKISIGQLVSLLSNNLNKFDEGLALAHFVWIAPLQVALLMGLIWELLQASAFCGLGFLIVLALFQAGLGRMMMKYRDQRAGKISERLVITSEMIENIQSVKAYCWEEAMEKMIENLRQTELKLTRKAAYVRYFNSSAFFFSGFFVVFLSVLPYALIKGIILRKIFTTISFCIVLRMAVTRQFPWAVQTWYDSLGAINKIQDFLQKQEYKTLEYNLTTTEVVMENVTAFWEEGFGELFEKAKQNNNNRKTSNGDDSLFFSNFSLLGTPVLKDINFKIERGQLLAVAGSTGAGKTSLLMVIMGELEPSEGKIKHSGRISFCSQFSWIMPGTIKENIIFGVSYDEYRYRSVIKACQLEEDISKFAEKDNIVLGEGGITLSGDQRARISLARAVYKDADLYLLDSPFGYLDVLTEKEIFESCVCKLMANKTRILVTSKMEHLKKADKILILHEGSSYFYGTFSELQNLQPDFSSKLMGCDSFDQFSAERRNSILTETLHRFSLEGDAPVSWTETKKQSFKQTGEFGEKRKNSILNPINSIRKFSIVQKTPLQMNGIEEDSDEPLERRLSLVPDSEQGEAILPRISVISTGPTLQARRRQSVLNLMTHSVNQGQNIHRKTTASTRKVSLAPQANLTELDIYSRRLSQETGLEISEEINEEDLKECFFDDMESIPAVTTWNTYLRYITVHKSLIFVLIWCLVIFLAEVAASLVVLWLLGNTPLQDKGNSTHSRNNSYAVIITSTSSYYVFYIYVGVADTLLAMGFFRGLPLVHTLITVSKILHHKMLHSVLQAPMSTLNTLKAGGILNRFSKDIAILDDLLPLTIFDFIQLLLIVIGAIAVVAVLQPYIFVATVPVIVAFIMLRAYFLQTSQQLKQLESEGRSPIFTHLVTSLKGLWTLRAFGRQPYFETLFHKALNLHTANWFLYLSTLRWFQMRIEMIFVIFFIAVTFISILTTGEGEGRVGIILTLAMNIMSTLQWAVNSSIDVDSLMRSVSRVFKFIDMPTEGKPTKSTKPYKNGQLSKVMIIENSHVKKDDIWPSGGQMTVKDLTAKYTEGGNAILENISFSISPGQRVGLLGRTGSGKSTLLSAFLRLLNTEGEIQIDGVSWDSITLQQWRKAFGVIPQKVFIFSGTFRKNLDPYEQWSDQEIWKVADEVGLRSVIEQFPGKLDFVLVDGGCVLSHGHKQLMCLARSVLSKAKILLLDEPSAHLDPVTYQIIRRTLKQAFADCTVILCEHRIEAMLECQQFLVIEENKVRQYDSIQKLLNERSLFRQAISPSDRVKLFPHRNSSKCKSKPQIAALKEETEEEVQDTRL
# Method in brief: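 Channel opening read as I⁻-driven quenching of a YFP H148Q/I152L/F47L reporter over 7 s post-injection, expressed as 1−F/F0 and fitted against concentration for EC50. Cells were HEK293 co-transfected at seeding with G551D CFTR plus reporter, then grown 24 h at 37 °C, 5% CO2.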
Compound,% Activation (CFTR ΔF508 mutant) [%],EC50 (CFTR ΔF508 mutant) [µM],% Activation (CFTR G551D mutant) [%],EC50 (CFTR G551D mutant) [µM]
"CC(C)COCC(O)CNC(=O)c1ncc(S(=O)(=O)c2ccc(C(F)(F)F)cc2)cc1N (stereo not drawn) [Compound 166, 3-amino-N-[2-hydroxy-3-(2-methylpropoxy)propyl]-5-{[4-(trifluoromethyl)phenyl]sulfonyl}pyridine-2-carboxamide]",111.7,0.0175,69.3,0.661
"COCCC(C)(O)CNC(=O)c1ncc(S(=O)(=O)c2ccc(C(F)(F)F)cc2)cc1N (stereo not drawn) [Compound 167, 3-amino-N-(2-hydroxy-4-methoxy-2-methylbutyl)-5-{[4-(trifluoromethyl)phenyl]sulfonyl}pyridine-2-carboxamide]",98.3,0.0417,71.5,1.55
"CC(C)OCC(O)CNC(=O)c1ncc(S(=O)(=O)c2ccc(OC(F)(F)F)cc2F)cc1N (stereo not drawn) [Compound 168, 3-amino-5-{[2-fluoro-4-(trifluoromethoxy)phenyl]sulfonyl}-N-[2-hydroxy-3-(propan-2-yloxy)propyl]pyridine-2-carboxamide]",103.5,0.0096,82.4,0.539
"Nc1cc(S(=O)(=O)c2ccc(OC(F)(F)F)cc2F)cnc1C(=O)NCC(O)COCC1CC1 (stereo not drawn) [Compound 169, 3-amino-N-[3-(cyclopropylmethoxy)-2-hydroxypropyl]-5-{[2-fluoro-4-(trifluoromethoxy)phenyl]sulfonyl}pyridine-2-carboxamide]",95.5,0.0138,81.3,1.12
"CC(C)COCC(O)CNC(=O)c1ncc(S(=O)(=O)c2ccc(C(F)(F)F)cc2F)cc1N (stereo not drawn) [Compound 170, 3-amino-5-{[2-fluoro-4-(trifluoromethyl)phenyl]sulfonyl}-N-[2-hydroxy-3-(2-methylpropoxy)propyl]pyridine-2-carboxamide]",108.6,0.0066,82.5,0.251
"CC(C)COCC(O)CNC(=O)c1ncc(S(=O)(=O)c2ccc(OC(F)(F)F)cc2F)cc1N (stereo not drawn) [Compound 171, 3-amino-5-{[2-fluoro-4-(trifluoromethoxy)phenyl]sulfonyl}-N-[2-hydroxy-3-(2-methylpropoxy)propyl]pyridine-2-carboxamide]",103.7,0.0087,86.4,0.991
"Nc1cc(S(=O)(=O)c2ccc(OC(F)(F)F)cc2F)cnc1C(=O)N1CC(F)(F)C1 [Compound 172, (3-amino-5-{[2-fluoro-4-(trifluoromethoxy)phenyl]sulfonyl}pyridin-2-yl)(3,3-difluoroazetidin-1-yl)methanone]",95.9,0.0134,62.4,0.864
"Nc1cc(S(=O)(=O)c2ccc(OC(F)(F)F)cc2F)cnc1C(=O)N1CC(O)(C(F)(F)F)C1 [Compound 173, (3-amino-5-{[2-fluoro-4-(trifluoromethoxy)phenyl]sulfonyl}pyridin-2-yl)[3-hydroxy-3-(trifluoromethyl)azetidin-1-yl]methanone]",98.3,0.0026,47.6,0.181
"CC(C)(O)C1CN(C(=O)c2ncc(S(=O)(=O)c3ccc(OC(F)(F)F)cc3F)cc2N)C1 [Compound 174, (3-amino-5-{[2-fluoro-4-(trifluoromethoxy)phenyl]sulfonyl}pyridin-2-yl)[3-(2-hydroxypropan-2-yl)azetidin-1-yl]methanone]",118.3,0.0059,50.3,0.371
"CC(C)C1(O)CN(C(=O)c2ncc(S(=O)(=O)c3ccc(OC(F)(F)F)cc3F)cc2N)C1 [Compound 175, (3-amino-5-{[2-fluoro-4-(trifluoromethoxy)phenyl]sulfonyl}pyridin-2-yl)[3-hydroxy-3-(propan-2-yl)azetidin-1-yl]methanone]",103.0,0.0063,44.0,> 3.33
"CC(C)(O)C1CN(C(=O)c2ncc(S(=O)(=O)c3ccc(C(F)(F)F)cc3F)cc2N)C1 [Compound 178, (3-amino-5-{[2-fluoro-4-(trifluoromethyl)phenyl]sulfonyl}pyridin-2-yl)[3-(2-hydroxypropan-2-yl)azetidin-1-yl]methanone]",109.7,0.0056,75.8,0.322
"C[C@@H]1CCCN1S(=O)(=O)c1cnc(C(=O)NCC(O)C(F)(F)F)c(N)c1 (stereo partly drawn) [Compound 179, 3-amino-5-{[(2R)-2-methylpyrrolidin-1-yl]sulfonyl}-N-(3,3,3-trifluoro-2-hydroxypropyl)pyridine-2-carboxamide]",100.4,0.0277,52.6,1.35
"Nc1cc(S(=O)(=O)N2CC[C@H](F)C2)cnc1C(=O)NCC(O)C(F)(F)F (stereo partly drawn) [Compound 180, 3-amino-5-{[(3S)-3-fluoropyrrolidin-1-yl]sulfonyl}-N-(3,3,3-trifluoro-2-hydroxypropyl)pyridine-2-carboxamide]",97.0,0.107,30.2,> 10
"C[C@H]1CCCN1S(=O)(=O)c1cnc(C(=O)NCC(O)C(F)(F)F)c(N)c1 (stereo partly drawn) [Compound 181, 3-amino-5-{[(2S)-2-methylpyrrolidin-1-yl]sulfonyl}-N-(3,3,3-trifluoro-2-hydroxypropyl)pyridine-2-carboxamide]",90.6,0.0198,61.4,1.33
"CC1CCCN(S(=O)(=O)c2cnc(C(=O)NCC(O)C(F)(F)F)c(N)c2)C1 (stereo not drawn) [Compound 182, 3-amino-5-[(3-methylpiperidin-1-yl)sulfonyl]-N-(3,3,3-trifluoro-2-hydroxypropyl)pyridine-2-carboxamide]",112.7,0.0047,51.3,0.645
"Nc1cc(S(=O)(=O)N2CCCC(F)(F)C2)cnc1C(=O)NCC(O)C(F)(F)F (stereo not drawn) [Compound 183, 3-amino-5-[(3,3-difluoropiperidin-1-yl)sulfonyl]-N-(3,3,3-trifluoro-2-hydroxypropyl)pyridine-2-carboxamide]",103.7,0.0208,42.0,1.13
"CC1CCN(S(=O)(=O)c2cnc(C(=O)NCC(O)C(F)(F)F)c(N)c2)CC1 (stereo not drawn) [Compound 184, 3-amino-5-[(4-methylpiperidin-1-yl)sulfonyl]-N-(3,3,3-trifluoro-2-hydroxypropyl)pyridine-2-carboxamide]",111.0,0.0069,66.4,0.392
"CC1CC(C)CN(S(=O)(=O)c2cnc(C(=O)NCC(O)C(F)(F)F)c(N)c2)C1 (stereo not drawn) [Compound 185, 3-amino-5-[(3,5-dimethylpiperidin-1-yl)sulfonyl]-N-(3,3,3-trifluoro-2-hydroxypropyl)pyridine-2-carboxamide]",111.3,0.0029,69.4,1.12
"Nc1cc(S(=O)(=O)N2CCC(F)(F)C2)cnc1C(=O)NCC(O)C(F)(F)F (stereo not drawn) [Compound 186, 3-amino-5-[(3,3-difluoropyrrolidin-1-yl)sulfonyl]-N-(3,3,3-trifluoro-2-hydroxypropyl)pyridine-2-carboxamide]",108.2,0.0299,49.9,> 3.33
"CN(Cc1ccc(F)cc1)S(=O)(=O)c1cnc(C(=O)NCC(O)C(F)(F)F)c(N)c1 (stereo not drawn) [Compound 187, 3-amino-5-[(4-fluorobenzyl)(methyl)sulfamoyl]-N-(3,3,3-trifluoro-2-hydroxypropyl)pyridine-2-carboxamide]",99.1,0.0028,71.8,0.705
"CC(C)C(C)NC(=O)c1ncc(S(=O)(=O)c2ccc(C(F)(F)F)cc2)cc1N (stereo not drawn) [Compound 188, 3-amino-N-(3-methylbutan-2-yl)-5-{[4-(trifluoromethyl)phenyl]sulfonyl}pyridine-2-carboxamide]",88.8,0.378,13.4,> 10
"CC(C)CNC(=O)c1ncc(S(=O)(=O)c2ccc(C(F)(F)F)cc2)cc1N [Compound 189, 3-amino-N-(2-methylpropyl)-5-{[4-(trifluoromethyl)phenyl]sulfonyl}pyridine-2-carboxamide]",99.9,0.112,30.7,> 10
"Nc1cc(S(=O)(=O)c2ccc(C(F)(F)F)cc2)cnc1C(=O)NCCOCC1CCCO1 (stereo not drawn) [Compound 190, 3-amino-N-[2-(tetrahydrofuran-2-ylmethoxy)ethyl]-5-{[4-(trifluoromethyl)phenyl]sulfonyl}pyridine-2-carboxamide]",96.6,0.135,67.4,1.88
"CC(C)(C)CNC(=O)c1ncc(S(=O)(=O)c2ccc(C(F)(F)F)cc2)cc1N [Compound 191, 3-amino-N-(2,2-dimethylpropyl)-5-{[4-(trifluoromethyl)phenyl]sulfonyl}pyridine-2-carboxamide]",99.7,0.157,11.7,> 10
